Laboratory results taken from ChEMBL document CHEMBL5465560, “Selectivity Literature for EUbOPEN Chemogenomic Library” (2024).

Assays:
[1] = target: T1, Inhibitor of nuclear factor kappa-B kinase subunit epsilon (Homo sapiens) (UniProt Q14164); conditions: at 10 µM
T1 sequence (whole entry): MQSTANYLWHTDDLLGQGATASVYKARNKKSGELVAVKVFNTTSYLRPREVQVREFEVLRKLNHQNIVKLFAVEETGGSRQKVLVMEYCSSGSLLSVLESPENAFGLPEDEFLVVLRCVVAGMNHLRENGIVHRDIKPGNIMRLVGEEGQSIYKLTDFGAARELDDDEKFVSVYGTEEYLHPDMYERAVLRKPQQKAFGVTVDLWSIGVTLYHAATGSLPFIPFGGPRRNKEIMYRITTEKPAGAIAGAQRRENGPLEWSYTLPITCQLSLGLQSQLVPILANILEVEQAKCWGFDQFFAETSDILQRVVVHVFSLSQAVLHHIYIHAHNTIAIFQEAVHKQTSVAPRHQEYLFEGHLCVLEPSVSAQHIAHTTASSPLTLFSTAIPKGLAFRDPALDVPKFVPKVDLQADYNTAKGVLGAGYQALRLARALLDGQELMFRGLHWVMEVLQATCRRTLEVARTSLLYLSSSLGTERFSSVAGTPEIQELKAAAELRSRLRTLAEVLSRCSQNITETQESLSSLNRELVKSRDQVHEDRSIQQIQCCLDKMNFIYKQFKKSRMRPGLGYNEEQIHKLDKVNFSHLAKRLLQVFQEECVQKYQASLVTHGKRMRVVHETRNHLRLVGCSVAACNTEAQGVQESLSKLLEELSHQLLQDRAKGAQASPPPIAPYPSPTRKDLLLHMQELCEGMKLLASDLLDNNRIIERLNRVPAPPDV

[2] = target: T2, Tyrosine-protein kinase TXK (Homo sapiens) (UniProt P42681); assay: Selectivity interaction (KinomeScan (DiscoverX)) EUB0000229b TXK; conditions: at 10 µM
T2 sequence (whole entry): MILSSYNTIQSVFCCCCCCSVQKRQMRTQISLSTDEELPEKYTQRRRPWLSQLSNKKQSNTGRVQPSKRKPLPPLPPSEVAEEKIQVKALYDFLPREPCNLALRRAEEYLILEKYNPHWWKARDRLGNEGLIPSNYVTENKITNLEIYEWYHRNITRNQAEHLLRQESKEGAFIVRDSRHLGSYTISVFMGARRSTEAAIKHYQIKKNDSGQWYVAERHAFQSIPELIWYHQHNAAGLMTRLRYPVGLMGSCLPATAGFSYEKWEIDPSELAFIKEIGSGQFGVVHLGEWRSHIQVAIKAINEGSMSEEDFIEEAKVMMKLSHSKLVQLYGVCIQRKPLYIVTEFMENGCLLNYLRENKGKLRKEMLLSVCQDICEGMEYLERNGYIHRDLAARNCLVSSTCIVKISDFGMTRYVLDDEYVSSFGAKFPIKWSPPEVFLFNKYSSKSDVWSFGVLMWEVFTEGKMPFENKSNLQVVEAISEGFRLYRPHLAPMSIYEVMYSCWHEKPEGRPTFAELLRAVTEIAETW

[3] = target: Serine/threonine-protein kinase pim-3 (Homo sapiens) (UniProt Q86V86); assay: Selectivity interaction (ProQinase) EUB0000171b PIM3
[4] = target: T3, Serine/threonine-protein kinase 17A (Homo sapiens) (UniProt Q9UEE5); assay: Selectivity interaction (Kinase panel (DSF assay)) EUB0001559a STK17A
T3 sequence (whole entry): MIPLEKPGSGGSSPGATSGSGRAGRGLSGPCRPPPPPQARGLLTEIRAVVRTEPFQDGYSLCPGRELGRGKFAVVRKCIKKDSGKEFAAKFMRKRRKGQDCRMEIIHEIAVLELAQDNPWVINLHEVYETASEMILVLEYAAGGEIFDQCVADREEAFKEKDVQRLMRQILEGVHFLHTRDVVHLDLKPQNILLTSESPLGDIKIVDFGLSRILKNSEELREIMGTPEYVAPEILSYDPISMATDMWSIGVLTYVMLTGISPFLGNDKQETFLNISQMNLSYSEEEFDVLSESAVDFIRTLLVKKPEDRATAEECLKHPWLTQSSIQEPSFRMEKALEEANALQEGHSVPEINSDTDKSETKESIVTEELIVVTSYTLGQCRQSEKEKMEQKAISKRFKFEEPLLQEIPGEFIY

[5] = target: Maternal embryonic leucine zipper kinase (Homo sapiens) (UniProt Q14680); assay: Selectivity interaction (KinomeScan (DiscoverX)) EUB0001079a MELK; conditions: at 1 µM
[6] = target: Transcription initiation factor TFIID subunit 1-like (Homo sapiens) (UniProt Q8IZX4); assay: Selectivity interaction (Human bromodomain panel (DSF assay)) EUB0000233b TAF1L
[7] = target: Proto-oncogene tyrosine-protein kinase Src (Homo sapiens, UniProt P12931); assay: Selectivity interaction (Kinase panel (Z-LYTE Assay)) EUB0001632a SRC; conditions: at 10 µM
[8] = target: Misshapen-like kinase 1 (Homo sapiens, UniProt Q8N4C8); assay: Selectivity interaction (Kinase panel (Z-LYTE Assay)) EUB0001632a MINK1; conditions: at 10 µM
[9] = target: T4, cAMP-dependent protein kinase catalytic subunit PRKX (Homo sapiens) (UniProt P51817); assay: Selectivity interaction (Kinase panel (Invitrogen)) EUB0000639a PRKX; conditions: at 200 nM
T4 sequence (whole entry): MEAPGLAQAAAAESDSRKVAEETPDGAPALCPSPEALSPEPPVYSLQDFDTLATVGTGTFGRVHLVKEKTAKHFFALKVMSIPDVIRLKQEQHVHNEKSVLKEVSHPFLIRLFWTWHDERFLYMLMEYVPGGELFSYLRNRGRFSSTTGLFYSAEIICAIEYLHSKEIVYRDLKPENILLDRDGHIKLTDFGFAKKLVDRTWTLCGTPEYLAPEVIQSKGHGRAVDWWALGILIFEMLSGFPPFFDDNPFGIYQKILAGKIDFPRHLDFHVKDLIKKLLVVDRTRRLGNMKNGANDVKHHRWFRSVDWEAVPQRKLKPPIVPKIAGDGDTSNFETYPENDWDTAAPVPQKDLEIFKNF

[10] = target: Glycogen synthase kinase-3 beta (Homo sapiens, UniProt P49841); assay: Selectivity interaction (SelectScreen profiling (Invitrogen)) EUB0000607a GSK3B; conditions: at 2 µM
[11] = target: Myosin light chain kinase, smooth muscle (Homo sapiens, UniProt Q15746); assay: Selectivity interaction (KinomeScan (DiscoverX)) EUB0000695a MYLK; conditions: at 100 nM
[12] = target: 5'-AMP-activated protein kinase catalytic subunit alpha-2 (Homo sapiens) (UniProt P54646); assay: Selectivity interaction (KinomeScan (DiscoverX)) EUB0000045b PRKAA2
[13] = target: Death-associated protein kinase 2 (Homo sapiens) (UniProt Q9UIK4); assay: Selectivity interaction (KinomeScan (DiscoverX)) EUB0000618a DAPK2; conditions: at 10 µM
Chain of Death-associated protein kinase 2 (Homo sapiens) (Q9UIK4 whole entry, looked up): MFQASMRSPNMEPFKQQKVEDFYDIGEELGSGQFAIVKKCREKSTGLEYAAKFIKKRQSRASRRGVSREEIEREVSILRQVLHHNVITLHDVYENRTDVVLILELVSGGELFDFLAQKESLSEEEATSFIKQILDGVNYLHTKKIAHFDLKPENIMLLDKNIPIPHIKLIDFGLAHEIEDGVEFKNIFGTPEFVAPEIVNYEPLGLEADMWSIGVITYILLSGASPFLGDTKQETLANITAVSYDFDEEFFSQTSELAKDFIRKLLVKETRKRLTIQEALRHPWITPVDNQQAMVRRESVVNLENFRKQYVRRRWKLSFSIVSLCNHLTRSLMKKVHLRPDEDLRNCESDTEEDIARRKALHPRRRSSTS

Chain of 5'-AMP-activated protein kinase catalytic subunit alpha-2 (Homo sapiens) (P54646 whole entry, looked up): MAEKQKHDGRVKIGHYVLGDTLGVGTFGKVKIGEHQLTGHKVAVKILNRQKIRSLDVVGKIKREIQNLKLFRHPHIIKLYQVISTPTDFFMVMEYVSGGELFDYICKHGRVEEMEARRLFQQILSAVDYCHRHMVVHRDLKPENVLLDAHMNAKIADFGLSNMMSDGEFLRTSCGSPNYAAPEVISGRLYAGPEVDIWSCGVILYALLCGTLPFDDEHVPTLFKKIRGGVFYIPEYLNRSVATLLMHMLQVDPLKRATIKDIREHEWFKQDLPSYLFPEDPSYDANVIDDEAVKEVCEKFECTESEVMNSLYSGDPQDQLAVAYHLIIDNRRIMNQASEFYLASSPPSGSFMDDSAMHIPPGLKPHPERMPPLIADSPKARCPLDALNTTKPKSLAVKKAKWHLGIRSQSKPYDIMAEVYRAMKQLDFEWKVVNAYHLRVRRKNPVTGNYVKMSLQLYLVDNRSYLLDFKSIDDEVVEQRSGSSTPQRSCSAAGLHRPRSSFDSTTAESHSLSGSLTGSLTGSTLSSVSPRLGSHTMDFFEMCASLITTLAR
Chain of Myosin light chain kinase, smooth muscle (Q15746 whole entry): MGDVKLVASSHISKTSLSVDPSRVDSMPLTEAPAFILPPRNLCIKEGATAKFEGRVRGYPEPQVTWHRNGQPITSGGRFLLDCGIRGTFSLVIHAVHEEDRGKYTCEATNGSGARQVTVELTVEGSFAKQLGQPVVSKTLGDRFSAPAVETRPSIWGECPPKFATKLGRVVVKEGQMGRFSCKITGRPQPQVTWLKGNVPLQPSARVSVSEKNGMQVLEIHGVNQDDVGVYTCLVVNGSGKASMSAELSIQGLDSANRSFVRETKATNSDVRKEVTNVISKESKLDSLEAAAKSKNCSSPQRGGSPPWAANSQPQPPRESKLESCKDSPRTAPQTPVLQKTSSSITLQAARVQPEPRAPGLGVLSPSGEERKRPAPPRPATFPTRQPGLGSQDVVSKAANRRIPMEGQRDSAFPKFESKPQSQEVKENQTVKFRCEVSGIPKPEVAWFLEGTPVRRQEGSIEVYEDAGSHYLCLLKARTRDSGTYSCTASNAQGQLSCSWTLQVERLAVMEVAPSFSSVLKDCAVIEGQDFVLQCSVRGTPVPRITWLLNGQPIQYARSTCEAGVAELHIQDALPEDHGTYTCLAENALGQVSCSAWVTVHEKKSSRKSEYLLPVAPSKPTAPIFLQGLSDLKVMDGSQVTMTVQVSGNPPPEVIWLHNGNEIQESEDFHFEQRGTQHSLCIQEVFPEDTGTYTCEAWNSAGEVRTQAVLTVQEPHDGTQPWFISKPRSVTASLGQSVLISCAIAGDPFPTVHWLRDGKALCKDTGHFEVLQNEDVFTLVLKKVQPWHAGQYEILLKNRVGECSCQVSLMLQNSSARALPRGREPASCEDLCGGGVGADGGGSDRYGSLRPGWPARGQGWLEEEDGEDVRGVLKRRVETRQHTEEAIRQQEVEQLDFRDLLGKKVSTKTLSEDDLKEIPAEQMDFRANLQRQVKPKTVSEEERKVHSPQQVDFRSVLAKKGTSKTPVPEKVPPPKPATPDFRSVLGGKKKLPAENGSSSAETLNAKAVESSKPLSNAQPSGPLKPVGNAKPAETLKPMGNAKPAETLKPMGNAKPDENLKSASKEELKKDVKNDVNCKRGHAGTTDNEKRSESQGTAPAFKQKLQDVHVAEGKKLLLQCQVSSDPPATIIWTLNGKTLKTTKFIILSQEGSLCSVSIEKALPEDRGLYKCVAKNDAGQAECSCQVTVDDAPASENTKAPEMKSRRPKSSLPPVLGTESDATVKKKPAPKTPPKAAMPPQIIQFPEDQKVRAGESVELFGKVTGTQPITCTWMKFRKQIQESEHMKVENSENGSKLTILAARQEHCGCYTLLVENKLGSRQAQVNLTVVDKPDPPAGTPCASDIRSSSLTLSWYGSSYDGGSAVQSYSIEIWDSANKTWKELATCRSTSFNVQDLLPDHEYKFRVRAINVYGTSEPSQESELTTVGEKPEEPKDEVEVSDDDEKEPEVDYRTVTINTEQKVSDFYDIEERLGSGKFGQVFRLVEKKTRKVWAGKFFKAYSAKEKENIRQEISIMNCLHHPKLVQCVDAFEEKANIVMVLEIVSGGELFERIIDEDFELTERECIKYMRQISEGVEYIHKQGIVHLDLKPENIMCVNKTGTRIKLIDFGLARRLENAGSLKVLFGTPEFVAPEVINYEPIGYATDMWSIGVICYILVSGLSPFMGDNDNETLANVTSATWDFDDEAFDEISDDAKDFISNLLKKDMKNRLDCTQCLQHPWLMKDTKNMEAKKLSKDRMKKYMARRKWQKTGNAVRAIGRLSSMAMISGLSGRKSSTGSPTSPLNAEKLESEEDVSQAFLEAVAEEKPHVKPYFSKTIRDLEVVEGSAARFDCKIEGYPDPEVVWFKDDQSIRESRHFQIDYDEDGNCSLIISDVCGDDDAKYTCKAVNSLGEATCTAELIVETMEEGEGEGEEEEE
Chain of Transcription initiation factor TFIID subunit 1-like (Homo sapiens) (Q8IZX4 whole entry): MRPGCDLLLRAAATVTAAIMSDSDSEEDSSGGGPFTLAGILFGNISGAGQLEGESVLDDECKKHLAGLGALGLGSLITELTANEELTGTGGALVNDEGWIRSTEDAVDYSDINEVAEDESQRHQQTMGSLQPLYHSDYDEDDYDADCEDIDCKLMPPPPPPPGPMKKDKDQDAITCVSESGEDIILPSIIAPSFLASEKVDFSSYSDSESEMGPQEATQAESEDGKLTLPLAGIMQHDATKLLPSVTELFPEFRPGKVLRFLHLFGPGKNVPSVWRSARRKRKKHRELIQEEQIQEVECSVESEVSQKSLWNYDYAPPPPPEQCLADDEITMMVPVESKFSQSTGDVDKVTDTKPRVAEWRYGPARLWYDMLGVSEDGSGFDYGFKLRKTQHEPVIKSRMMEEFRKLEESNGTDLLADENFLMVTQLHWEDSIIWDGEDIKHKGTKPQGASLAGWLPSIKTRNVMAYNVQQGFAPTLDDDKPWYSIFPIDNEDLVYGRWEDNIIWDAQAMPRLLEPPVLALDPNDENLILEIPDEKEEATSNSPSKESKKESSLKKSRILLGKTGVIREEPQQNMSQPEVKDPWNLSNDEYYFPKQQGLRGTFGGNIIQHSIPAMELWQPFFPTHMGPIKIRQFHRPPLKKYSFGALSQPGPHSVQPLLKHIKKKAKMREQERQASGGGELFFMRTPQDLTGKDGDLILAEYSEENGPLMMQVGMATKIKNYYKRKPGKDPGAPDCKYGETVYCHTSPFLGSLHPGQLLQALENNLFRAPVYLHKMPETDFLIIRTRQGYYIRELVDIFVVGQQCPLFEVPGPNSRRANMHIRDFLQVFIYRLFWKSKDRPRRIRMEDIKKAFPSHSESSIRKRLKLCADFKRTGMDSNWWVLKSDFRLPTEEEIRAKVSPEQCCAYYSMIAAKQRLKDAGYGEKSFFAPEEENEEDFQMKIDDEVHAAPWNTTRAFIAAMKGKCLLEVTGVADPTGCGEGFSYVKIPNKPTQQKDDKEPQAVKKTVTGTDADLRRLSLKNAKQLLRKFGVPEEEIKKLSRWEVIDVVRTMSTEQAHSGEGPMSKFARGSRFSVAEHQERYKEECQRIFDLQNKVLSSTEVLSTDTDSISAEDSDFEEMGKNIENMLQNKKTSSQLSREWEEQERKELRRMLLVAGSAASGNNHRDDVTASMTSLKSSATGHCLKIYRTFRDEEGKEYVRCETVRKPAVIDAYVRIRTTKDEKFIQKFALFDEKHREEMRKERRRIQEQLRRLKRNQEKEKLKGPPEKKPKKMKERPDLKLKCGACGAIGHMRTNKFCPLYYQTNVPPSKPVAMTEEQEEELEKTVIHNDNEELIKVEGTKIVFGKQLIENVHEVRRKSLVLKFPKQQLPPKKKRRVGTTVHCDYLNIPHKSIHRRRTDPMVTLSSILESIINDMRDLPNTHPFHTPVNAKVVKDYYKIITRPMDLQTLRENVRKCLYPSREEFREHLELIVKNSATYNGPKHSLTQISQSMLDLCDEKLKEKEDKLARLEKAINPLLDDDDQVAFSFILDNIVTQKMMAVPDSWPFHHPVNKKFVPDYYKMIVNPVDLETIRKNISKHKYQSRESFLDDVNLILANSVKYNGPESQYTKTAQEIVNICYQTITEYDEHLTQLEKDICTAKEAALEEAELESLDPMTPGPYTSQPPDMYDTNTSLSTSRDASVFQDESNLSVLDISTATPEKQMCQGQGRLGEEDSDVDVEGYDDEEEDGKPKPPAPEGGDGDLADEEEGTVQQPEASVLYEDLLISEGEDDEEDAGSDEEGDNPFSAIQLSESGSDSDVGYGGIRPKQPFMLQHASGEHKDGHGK

CCN(CC)CCCCNc1ncc2cc(-c3cc(OC)cc(OC)c3)c(NC(=O)NC(C)(C)C)nc2n1
% of control [1]: 100%

COc1cc(N(C)c2ccnc3ccc(C(F)(F)F)cc23)cc(OC)c1OC
% binding [2]: 96%

C=CC(=O)Nc1cccc(C(=O)Nc2ccc(Nc3cc(-c4[nH]c(SC)nc4C)ccn3)cc2)c1
% of control ([3]; at 1 µM): 93% | % of control ([3]; at 5 µM): 82%

CN(C(=O)c1cnn2cccnc12)c1cc2c(cc1N1CCOCC1)C(=O)N(C[C@@H](F)C(C)(C)O)C2
dTM [4]: -0.1 K

Nc1cnc(N2CCc3cc(S(=O)(=O)Nc4c(F)cc(Cl)cc4F)cc(N4CCCC4=O)c32)nc1 [TP-020n]
% of control [5]: 90%

CN(C)CCCOc1ccc(-c2cc(NCCCn3cccn3)nc(S(C)(=O)=O)n2)cc1
dTM [6]: < 2 K

Cn1cc(-n2cnc3c(NCc4nc5cc(Cl)c(Cl)cc5[nH]4)nc(N4CCOCC4)nc32)cn1
% of control [7]: 12.1% | % of control [8]: -3.28%

CC[C@@H]1[C@H](F)C(=O)N[C@@H]1COc1nccc2cc(C(N)=O)c(OC)cc12 [ZIMLOVISERTIB]
% of inhibition [9]: 11.1%

CNC(=O)Nc1ccc(-c2nc(N3CC4CCC(C3)O4)c3cnn(C4CCC5(CC4)OCCO5)c3n2)cc1
% of inhibition [10]: 1%

Cc1cc(F)c(C(=O)Nc2cccc(-c3nncn3C(C)C)n2)cc1-n1cnc(C2CC2)c1
% of control [11]: 100%

C=CC(=O)Nc1cc(-n2c(=O)ccc3cnc4ccc(-c5ccc(NS(C)(=O)=O)cc5)cc4c32)ccc1C
% of control ([12]; at 1 µM): 92% | % of control ([12]; at 10 µM): 92%

O[C@H]1CC[C@H](Nc2ncc3nc(Nc4c(F)cc(F)cc4F)n([C@H]4CCOC4)c3n2)CC1
% of control [13]: 100%
